Measurements as given in article PMC11596612, “Nine New Glycosylated Compounds from the Leaves of the Medicinal Plant Malus hupehensis” (Molecules, 2024).
Like-named read-outs stand apart in the source and are kept apart here.

Test system: NO production in LPS-activated RAW 264.7 macrophage cells
Test: Anti-NO activity assay: inhibition of NO production in LPS-activated RAW 264.7 macrophage cells
Assay type: cell-based
Conditions: LPS-activated RAW 264.7 cells, means of three independent replicates, ammonium pyrrolidinedithiocarbamate positive control, read-out: NO production inhibitory activity IC50 (RAW 264.7)
Description: Using a previously published method, the anti-inflammatory activity of all compounds (1–15) was assessed based on the suppression of NO generation in RAW264.7 cells.

Compound: COc1cc(O)cc2c1oc1ccccc12 [Compound 14, 2-Hydroxy-4-methoxydibenzofuran]
- IC50 (Mus musculus, RAW264.7): > 40 µM

Compound: O=C(OC[C@H]1O[C@@H](Oc2cc(O)cc(O)c2C(=O)CCc2ccc(O)cc2)[C@H](O)[C@@H](O)[C@@H]1O)c1ccccc1 [Compound 10, phloridzin 6″-O-benzoate]
- IC50: > 40 µM

Compound: S=C(S)N1CCCC1 [Ammonium pyrrolidinedithiocarbamate, reference compound]
- IC50: 20 ± 0.12 µM

Compound: O=C(/C=C/c1ccccc1)O[C@H]1[C@H](Oc2cc(O)cc(O)c2C(=O)CCc2ccc(O)cc2)O[C@H](CO)[C@@H](O)[C@@H]1O [Compound 2, malahupinoside D]
- IC50 (Mus musculus, RAW264.7): > 40 µM

Compound: O=C(/C=C/c1ccc(O)cc1)Oc1ccc(CCC(=O)c2c(O)cc(O)cc2O[C@@H]2O[C@H](CO)[C@@H](O)[C@H](O)[C@H]2O)cc1 [Compound 12, 4-[3-[2-(β-D-Glucopyranosyloxy)-4,6-dihydroxyphenyl]-3-oxopropyl]phenyl(2E)-3-(4-hydroxyphenyl)-2-propenoate]
- IC50 (Mus musculus, RAW264.7): > 40 µM

Compound: COc1cc(O)c(OC2OC(CO)C(O)C(O)C2O)c2c1oc1ccccc12 (stereo not shown) [Compound 7, fortuneanoside O]
- IC50 (Mus musculus, RAW264.7): > 40 µM

Compound: COc1cccc2c1oc1c(OC)cc(O)cc12 [Compound 5]
- IC50 (Mus musculus, RAW264.7): > 40 µM

Compound: COc1cccc2c1oc1c(OC)cc(O)c(OC3OC(CO)C(O)C(O)C3O)c12 (stereo not shown) [Compound 6, fortuneanoside N]
- IC50 (Mus musculus, RAW264.7): > 40 µM

Compound: COc1cc(/C=C/C(=O)OC[C@H]2O[C@@H](Oc3cc(O)cc(O)c3C(=O)CCc3ccc(O)cc3)[C@H](O)[C@@H](O)[C@@H]2O)ccc1O [Compound 4, malahupinoside F]
- IC50 (Mus musculus, RAW264.7): 29.6 µM

Compound: O=C(/C=C/c1ccc(O)cc1)OC[C@H]1O[C@@H](Oc2cc(O)cc(O)c2C(=O)CCc2ccc(O)cc2)[C@H](O)[C@@H](O)[C@@H]1O [Compound 3, malahupinoside E]
- IC50 (Mus musculus, RAW264.7): > 40 µM

Compound: COc1cc(OC)cc(-c2ccccc2OC2OC(CO)C(O)C(O)C2O)c1 (stereo not shown) [Compound 8, fortuneanoside P]
- IC50 (Mus musculus, RAW264.7): > 40 µM

Compound: O=C(O[C@H]1[C@H](Oc2cc(O)cc(O)c2C(=O)CCc2ccc(O)cc2)O[C@H](CO)[C@@H](O)[C@@H]1O)c1ccccc1 [Compound 1, malahupinoside C]
- IC50 (Mus musculus, RAW264.7): > 40 µM

Compound: methylenebisphloridzin [Compound 13]
- IC50: > 40 µM

Compound: COc1cc(OC)cc(-c2ccc(O)c(O[C@@H]3O[C@H](CO)[C@@H](O)[C@H](O)[C@H]3O)c2)c1 [Compound 15, 3′,5′-Dimethoxy-(1,1′-biphenyl)-3,4-diol 3-O-β-D-glucopyranoside]
- IC50 (Mus musculus, RAW264.7): > 40 µM

Compound: O=C(C=Cc1ccccc1)OCC1OC(Oc2cc(O)cc(O)c2C(=O)CCc2ccc(O)cc2)C(O)C(O)C1O (stereo not shown) [Compound 11, phloridzin 6″-O-cinnamate]
- IC50: > 40 µM

Compound: COc1cc(OC)c(OC2OC(CO)C(O)C(O)C2O)c(-c2ccccc2O)c1 (stereo not shown) [Compound 9, fortuneanoside Q]
- IC50 (Mus musculus, RAW264.7): > 40 µM
